Molecular target: Inositol-trisphosphate 3-kinase A (Homo sapiens, UniProt P23677)
Assay: Inhibition Assay
Conditions: pH 8; 37 °C
Method: IP3K reactions were carried out in a 100ul solution that contained Tris-Cl, EGTA, ATP, DTT, 2,3-diphosphoglycerate, D-l(1,4,5)P3, [3H]-l(1,4,5)P3 and various amounts of synthetic purine analogues.

Inositol-trisphosphate 3-kinase A, sequence (P23677 whole entry): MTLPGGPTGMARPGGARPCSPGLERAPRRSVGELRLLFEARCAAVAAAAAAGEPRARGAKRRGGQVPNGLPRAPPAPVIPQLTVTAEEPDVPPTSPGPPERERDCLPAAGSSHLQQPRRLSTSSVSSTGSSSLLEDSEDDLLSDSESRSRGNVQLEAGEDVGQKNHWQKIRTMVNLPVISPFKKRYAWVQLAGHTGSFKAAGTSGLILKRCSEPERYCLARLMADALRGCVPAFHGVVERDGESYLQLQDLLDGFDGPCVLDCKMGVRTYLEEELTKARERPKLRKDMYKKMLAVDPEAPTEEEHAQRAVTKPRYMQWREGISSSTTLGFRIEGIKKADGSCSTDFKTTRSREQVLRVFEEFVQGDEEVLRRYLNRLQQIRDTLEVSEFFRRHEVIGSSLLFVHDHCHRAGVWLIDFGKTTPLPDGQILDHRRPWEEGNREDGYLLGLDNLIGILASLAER

| Compound | IC50 [µM] | Ki [µM] |
| --- | --- | --- |
| Cn1cnc2c(NCc3ccc(N)cc3)nc(NCc3cccc(C(F)(F)F)c3)nc21 [Purine, 1] | 57.1 | – |
| FC(F)(F)c1cccc(CNc2nc(NCc3ccccc3)c3ncn(C4CCCCO4)c3n2)c1 (stereo not given) [Purine, 4] | 43.4 | – |
| Clc1cccc(CNc2nc(NCc3ccccc3)c3[nH]cnc3n2)c1 [Purine, 6] | 150 | – |
| Clc1ccc(CNc2nc(NCc3ccccc3)c3[nH]cnc3n2)cc1 [Purine, 7] | 138 | – |
| FC(F)(F)c1ccc(CNc2nc(NCc3ccc(C(F)(F)F)cc3)c3[nH]cnc3n2)cc1 [Purine, 8] | 102 | – |
| Fc1ccc(CNc2nc(NCc3ccccc3)c3[nH]cnc3n2)cc1 [Purine, 9] | 220 | – |
| Clc1ccc(CNc2nc(Nc3ccccc3)c3[nH]cnc3n2)cc1 [Purine, 10] | 150 | – |
| COc1ccc(CNc2nc(NCc3cccc(C(F)(F)F)c3)nc3c2ncn3C(C)C)cc1 [Purine, 11] | > 200 | – |
| CC(C)n1cnc2c(Nc3cccc(Cl)c3)nc(NCc3cccc(C(F)(F)F)c3)nc21 [Purine, 12] | > 200 | – |
| c1ccc(CNc2nc(NCc3ccc4ccccc4c3)nc3nc[nH]c23)cc1 [Purine, 13] | 63 | – |
| NCc1cccc(CNc2nc(NCc3ccccc3)c3[nH]cnc3n2)c1 [Purine, 14] | > 200 | – |
| CC(Nc1nc(NCc2ccccc2)c2[nH]cnc2n1)c1ccccc1 (stereo not given) [Purine, 15] | 117 | – |
| O=[N+]([O-])c1cccc(CNc2nc(NCc3ccccc3Cl)nc3nc[nH]c23)c1 [Purine, 16] | > 200 | – |
| O=[N+]([O-])c1ccc(CNc2nc(NCc3ccc(C(F)(F)F)cc3)nc3nc[nH]c23)cc1 [Purine, 18] | 67.6 | – |
| O=[N+]([O-])c1ccc(CNc2nc(NCc3cccc(F)c3)nc3nc[nH]c23)cc1 [Purine, 20] | 49 | – |

Stronger by IC50, values ahead:

| IC50 [µM] | Ki [µM] | Compound |
| --- | --- | --- |
| 28.8 | – | O=[N+]([O-])c1ccc(CNc2nc(NCc3ccc(F)cc3)nc3nc[nH]c23)cc1 [Purine, 21] |
| 28 | – | O=[N+]([O-])c1ccc(CNc2nc(NCc3ccccc3Cl)nc3nc[nH]c23)cc1 [Purine, 22] |
| 23.4 | – | O=[N+]([O-])c1ccc(CNc2nc(NCc3ccccc3F)nc3nc[nH]c23)cc1 [Purine, 19] |
| 20 | – | O=[N+]([O-])c1ccc(CNc2nc(NCc3cccc(Cl)c3)nc3nc[nH]c23)cc1 [Purine, 23] |
| 18.2 | – | O=[N+]([O-])c1ccc(CNc2nc(NCc3ccccc3C(F)(F)F)nc3nc[nH]c23)cc1 [Purine, 17] |
| 13.7 | – | FC(F)(F)c1cccc(CNc2nc(NCc3ccccc3)c3nc[nH]c3n2)c1 [Purine, 3] |
| 13.5 | – | Nc1ccc(CNc2nc(NCc3cccc(C(F)(F)F)c3)nc3nc[nH]c23)cc1 [Purine, 2] |
| 12.7 | – | O=[N+]([O-])c1ccc(CNc2nc(NCc3ccc(Cl)cc3)nc3nc[nH]c23)cc1 [Purine, 24] |
| 10.2 | 4.3 | O=[N+]([O-])c1ccc(CNc2nc(NCc3cccc(C(F)(F)F)c3)nc3[nH]cnc23)cc1 [Purine, 5] |
